From PubChem BioAssay AID1963867 (Molecular Pharmacology Branch, DTP, NCI, 2024)

Tested on: KRAS-mutant PDC tumor spheroid with HUVEC/MSC, viability
Assay: Anticancer human tumor 327498-153-R-J2-PDC patient-derived uterine carcinosarcoma cell line growth inhibition [KRAS2]
Settings: for IC50: curve of first compound; for viability, T/C: stronger effect = lower value
In short: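 KRAS-mutant tumor cells were grown as spheroids with HUVEC endothelial cells and human MSCs as stroma. Targeted agents were tested alone and with KRAS pathway inhibitors. Doses started at or near clinical Cmax, or 10 microM, descending half-log.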

[1] = second compound 0.1 µM, first compound 0.01 µM
[2] = second compound 0.1 µM, first compound 0.0316 µM
[3] = second compound 0.1 µM, first compound 0.1 µM
[4] = second compound 0.1 µM, first compound 0.316 µM
[5] = second compound 0.1 µM, first compound 1 µM
[6] = second compound 0.1 µM, first compound 3.16 µM
[7] = second compound 0.316 µM, first compound 0.01 µM
[8] = second compound 0.316 µM, first compound 0.0316 µM
[9] = second compound 0.316 µM, first compound 0.1 µM
[10] = second compound 0.316 µM, first compound 0.316 µM
[11] = second compound 0.316 µM, first compound 1 µM
[12] = second compound 0.316 µM, first compound 3.16 µM
[13] = second compound 1 µM, first compound 0.01 µM
[14] = second compound 1 µM, first compound 0.0316 µM
[15] = second compound 1 µM, first compound 0.1 µM
[16] = second compound 1 µM, first compound 0.316 µM
[17] = second compound 1 µM, first compound 1 µM
[18] = second compound 1 µM, first compound 3.16 µM
[19] = second compound 3.16 µM, first compound 0.01 µM
[20] = second compound 3.16 µM, first compound 0.0316 µM
[21] = second compound 3.16 µM, first compound 0.1 µM
[22] = second compound 3.16 µM, first compound 0.316 µM
[23] = second compound 3.16 µM, first compound 1 µM
[24] = second compound 3.16 µM, first compound 3.16 µM
[25] = second compound 10 µM, first compound 0.01 µM
[26] = second compound 10 µM, first compound 0.0316 µM
[27] = second compound 10 µM, first compound 0.1 µM
[28] = second compound 10 µM, first compound 0.316 µM
[29] = second compound 10 µM, first compound 1 µM
[30] = second compound 10 µM, first compound 3.16 µM
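Also: spheroids exposed to agents for seven days before reading.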
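For viability, T/C in this document: 100% = DMSO vehicle wells so lower means fewer viable cells.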

CC1COCCN1c1cc(-c2ccnn2C)c2ccnc(-c3ccn[nH]3)c2n1 (stereo not given) + CC1OCC2(CCN(c3cnc(Sc4ccnc(N)c4Cl)c(N)n3)CC2)C1N
IC50 (second compound 0.1 µM): 21 nM | IC50 (second compound 0.316 µM): < 10 nM | IC50 (second compound 1 µM): < 10 nM | IC50 (second compound 3.16 µM): < 10 nM | IC50 (second compound 10 µM): < 10 nM | viability, T/C [1]: 70% | viability, T/C [2]: 39% | viability, T/C [3]: 8.18% | viability, T/C [4]: 6.79% | viability, T/C [5]: 8.72% | viability, T/C [6]: 6.58% | viability, T/C [7]: 37.1% | viability, T/C [8]: 21.5% | viability, T/C [9]: 8.27% | viability, T/C [10]: 5.01% | viability, T/C [11]: 7.64% | viability, T/C [12]: 4.81% | viability, T/C [13]: 31.1% | viability, T/C [14]: 14.8% | viability, T/C [15]: 7.95% | viability, T/C [16]: 4.88% | viability, T/C [17]: 4.72% | viability, T/C [18]: 4.24% | viability, T/C [19]: 23.2% | viability, T/C [20]: 12.1% | viability, T/C [21]: 8.55% | viability, T/C [22]: 5.44% | viability, T/C [23]: 5.2% | viability, T/C [24]: 3.81% | viability, T/C [25]: 19.6% | viability, T/C [26]: 13.4% | viability, T/C [27]: 7.85% | viability, T/C [28]: 6.38% | viability, T/C [29]: 5.34% | viability, T/C [30]: 3.63%

Cn1nccc1Nc1nccc(-c2cc3c(s2)C(C)(C)N(CCN2CCOCC2)C3=O)n1 + CC1OCC2(CCN(c3cnc(Sc4ccnc(N)c4Cl)c(N)n3)CC2)C1N
IC50 (second compound 0.1 µM): 644 nM | IC50 (second compound 0.316 µM): 61.1 nM | IC50 (second compound 1 µM): < 31.6 nM | IC50 (second compound 3.16 µM): < 31.6 nM | IC50 (second compound 10 µM): < 31.6 nM | viability, T/C [2]: 74.2% | viability, T/C [3]: 60.7% | viability, T/C [4]: 59.1% | viability, T/C [5]: 45.6% | viability, T/C [6]: 39.1% | viability, T/C (second compound 0.1 µM, first compound 10 µM): 36.5% | viability, T/C [8]: 53.4% | viability, T/C [9]: 47% | viability, T/C [10]: 43.2% | viability, T/C [11]: 40.4% | viability, T/C [12]: 38.1% | viability, T/C (second compound 0.316 µM, first compound 10 µM): 27.6% | viability, T/C [14]: 37.8% | viability, T/C [15]: 39.9% | viability, T/C [16]: 32.1% | viability, T/C [17]: 30.8% | viability, T/C [18]: 28.6% | viability, T/C (second compound 1 µM, first compound 10 µM): 26.4% | viability, T/C [20]: 30.3% | viability, T/C [21]: 29.7% | viability, T/C [22]: 25.3% | viability, T/C [23]: 22.2% | viability, T/C [24]: 21.9% | viability, T/C (second compound 3.16 µM, first compound 10 µM): 19.9% | viability, T/C [26]: 23.3% | viability, T/C [27]: 22.2% | viability, T/C [28]: 16.9% | viability, T/C [29]: 15.8% | viability, T/C [30]: 17.1% | viability, T/C (second compound 10 µM, first compound 10 µM): 15.9%

CC(=O)OC12COC1CC(O)C1(C)C(=O)C(O)C3=C(C)C(OC(=O)C(O)C(NC(=O)OC(C)(C)C)c4ccccc4)CC(O)(C(OC(=O)c4ccccc4)C21)C3(C)C (stereo not given) + CNCc1ccccc1-c1csc(C(C)Nc2nc(C)nc3cc(OC)c(OC)cc23)c1
IC50 (second compound 0.1 µM): < 10 nM | IC50 (second compound 0.316 µM): < 10 nM | IC50 (second compound 1 µM): < 10 nM | IC50 (second compound 3.16 µM): < 10 nM | IC50 (second compound 10 µM): < 10 nM | viability, T/C [1]: 7.46% | viability, T/C [2]: 5.57% | viability, T/C [3]: 5.61% | viability, T/C [4]: 7.57% | viability, T/C [5]: 8.63% | viability, T/C [6]: 13.1% | viability, T/C [7]: 7.41% | viability, T/C [8]: 5.76% | viability, T/C [9]: 8.79% | viability, T/C [10]: 6.37% | viability, T/C [11]: 9.11% | viability, T/C [12]: 10.8% | viability, T/C [13]: 9.89% | viability, T/C [14]: 6.01% | viability, T/C [15]: 6.6% | viability, T/C [16]: 7.2% | viability, T/C [17]: 11% | viability, T/C [18]: 10.6% | viability, T/C [19]: 8.09% | viability, T/C [20]: 0.04% | viability, T/C [21]: 0.03% | viability, T/C [22]: 0.04% | viability, T/C [23]: 0.48% | viability, T/C [24]: 10.4% | viability, T/C [25]: 0.78% | viability, T/C [26]: 0.42% | viability, T/C [27]: 2.08% | viability, T/C [28]: 0.12% | viability, T/C [29]: 10.2% | viability, T/C [30]: 0.25%

CN(C)C/C=C/C(=O)Nc1cc2c(Nc3ccc(F)c(Cl)c3)ncnc2cc1O[C@H]1CCOC1 + CNCc1ccccc1-c1csc(C(C)Nc2nc(C)nc3cc(OC)c(OC)cc23)c1
IC50 (second compound 0.1 µM): > 100 nM | IC50 (second compound 0.316 µM): > 100 nM | IC50 (second compound 1 µM): > 100 nM | IC50 (second compound 3.16 µM): 1.72 nM | IC50 (second compound 10 µM): < 0.316 nM | viability, T/C (second compound 0.1 µM, first compound 0.000316 µM): 87.9% | viability, T/C (second compound 0.1 µM, first compound 0.001 µM): 79.1% | viability, T/C (second compound 0.1 µM, first compound 0.00316 µM): 79.7% | viability, T/C [1]: 81% | viability, T/C [2]: 71.5% | viability, T/C [3]: 77.4% | viability, T/C (second compound 0.316 µM, first compound 0.000316 µM): 78.9% | viability, T/C (second compound 0.316 µM, first compound 0.001 µM): 67.8% | viability, T/C (second compound 0.316 µM, first compound 0.00316 µM): 73.9% | viability, T/C [7]: 67.2% | viability, T/C [8]: 65.8% | viability, T/C [9]: 64% | viability, T/C (second compound 1 µM, first compound 0.000316 µM): 76.6% | viability, T/C (second compound 1 µM, first compound 0.001 µM): 67.9% | viability, T/C (second compound 1 µM, first compound 0.00316 µM): 64% | viability, T/C [13]: 73.4% | viability, T/C [14]: 58.2% | viability, T/C [15]: 65.7% | viability, T/C (second compound 3.16 µM, first compound 0.000316 µM): 62.1% | viability, T/C (second compound 3.16 µM, first compound 0.001 µM): 51.1% | viability, T/C (second compound 3.16 µM, first compound 0.00316 µM): 42.6% | viability, T/C [19]: 1.18% | viability, T/C [20]: 22.6% | viability, T/C [21]: 21.1% | viability, T/C (second compound 10 µM, first compound 0.000316 µM): 0.49% | viability, T/C (second compound 10 µM, first compound 0.001 µM): 0.76% | viability, T/C (second compound 10 µM, first compound 0.00316 µM): 0.34% | viability, T/C [25]: 0.27% | viability, T/C [26]: 1.73% | viability, T/C [27]: 0.36%
